Laboratory results published in publication PMC6095626, “Screening of the Pathogen Box for inhibitors with dual efficacy against Giardia lamblia and Cryptosporidium parvum” (PLoS Neglected Tropical Diseases, 2018).

Tests used:
[1] = system: G. lamblia trophozoites (luciferase expressing, WBC6); test: microbe, parasite or virus in culture; assay type: cell-based, Giardia lamblia; settings: for Giardia (16 uM) Mean % inhibition: initial Pathogen Box screen, single concentration 16 µM, inhibition compared to DMSO wells
How it was run: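 Incubation ran 24 h at 37 °C under anaerobic conditions, with compound added in equal volume to trophozoites (WBC6, luciferase-expressing, 250,000 cells/mL). Bioluminescence was the read-out, cross-checked by MOXI Z counts on a duplicate plate; metronidazole served as control (1:2 dilutions from 40 μM).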

[2] = system: C. parvum (UGA1 Nluc expressing strain in HCT-8 cells); test: microbe, parasite or virus in culture; assay type: cell-based, Cryptosporidium parvum; settings: initial Pathogen Box screen, single concentration 10 µM, inhibition compared to DMSO wells
How it was run: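 Parasite growth quantified by NanoLuc luminescence from lysed infected HCT-8 cells, with EC50 fitted from dose curves. Compounds, single-dose 10 μM or serially diluted, were added to confluent 48 h monolayers before infection with bleached UGA1 Nluc oocysts.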

CCC(C)NC(=O)c1ccc(NC(=O)C2(c3ccccc3)CCCC2)cc1 (stereo not shown) [MMV146306]
Giardia (16 uM) Mean % inhibition [1]: X* (Mean or standard deviation are negative but not significantly different from the control to be a growth promoter)
Crypto (10 uM) Mean % inhibition [2]: 37%

CCOC(=O)c1c(NC(=O)c2c(F)c(F)c(F)c(F)c2F)sc(C(N)=O)c1C [MMV153413]
G. lamblia inhibition of parasite growth in the initial screen ([1]; 16 μM, 24 hours): ≥ 95%
Giardia (16 uM) Mean % inhibition [1]: 97%
G. lamblia EC50 ([1]; luciferase expressing G. lamblia trophozoites, 24 hours, D-luciferin bioluminescence read-out): not potent
Crypto (10 uM) Mean % inhibition [2]: X* (Mean or standard deviation are negative but not significantly different from the control to be a growth promoter)

Cc1cc(Cl)ccc1NC(=O)CCc1ccc(S(=O)(=O)NCC(C)C)cc1 [MMV161996]
Giardia (16 uM) Mean % inhibition [1]: X* (Mean or standard deviation are negative but not significantly different from the control to be a growth promoter)
Crypto (10 uM) Mean % inhibition [2]: 41%

CNC(=O)C1Cc2ccccc2N1C(=O)Cc1ccc(F)cc1 (stereo not shown) [MMV188296]
Giardia (16 uM) Mean % inhibition [1]: 33%
Crypto (10 uM) Mean % inhibition [2]: 54%

COc1ccc(C2(C(=O)Nc3ccc(Br)cc3)CCCC2)cc1 [MMV200748]
Giardia (16 uM) Mean % inhibition [1]: 29%
Crypto (10 uM) Mean % inhibition [2]: X* (Mean or standard deviation are negative but not significantly different from the control to be a growth promoter)

COc1ccc(OC(C)C(=O)Nc2ccc(Cl)cc2C)cc1 (stereo not shown) [MMV202458]
Giardia (16 uM) Mean % inhibition [1]: 11%
Crypto (10 uM) Mean % inhibition [2]: X* (Mean or standard deviation are negative but not significantly different from the control to be a growth promoter)

CCC(=O)Nc1ccccc1C(=O)Nc1ccccn1 [MMV202553]
Giardia (16 uM) Mean % inhibition [1]: 35%
Crypto (10 uM) Mean % inhibition [2]: 20%

COc1cccc(NC(=O)c2c(NC(=O)c3cccnc3)sc3c2CCC3)c1 [MMV228911]
Giardia (16 uM) Mean % inhibition [1]: 37%
Crypto (10 uM) Mean % inhibition [2]: 39%

COc1cccc(-n2nnnc2S(C)(=O)=O)c1 [MMV272144]
Giardia (16 uM) Mean % inhibition [1]: X* (Mean or standard deviation are negative but not significantly different from the control to be a growth promoter)
Crypto (10 uM) Mean % inhibition [2]: X* (Mean or standard deviation are negative but not significantly different from the control to be a growth promoter)

COc1cccc(-c2cc3c(Nc4cccnc4)nccc3[nH]2)c1 [MMV392832]
Giardia (16 uM) Mean % inhibition [1]: 50%
Crypto (10 uM) Mean % inhibition [2]: 68%

CN1CCN(c2nccc3[nH]c(-c4cccc(F)c4)cc23)CC1 [MMV393144]
Giardia (16 uM) Mean % inhibition [1]: 77%
Crypto (10 uM) Mean % inhibition [2]: 50%

Cc1cc(=O)[nH]c(-n2nc(C)cc2C)n1 [MMV393995]
Giardia (16 uM) Mean % inhibition [1]: X* (Mean or standard deviation are negative but not significantly different from the control to be a growth promoter)
Crypto (10 uM) Mean % inhibition [2]: 86%

CCc1nc2ccc(C(=O)NCc3ccc4c(c3)OCO4)cn2c1N(C)Cc1cccs1 [MMV407539]
Giardia (16 uM) Mean % inhibition [1]: 17%
Crypto (10 uM) Mean % inhibition [2]: 59%

CCOc1ccccc1NC(C)C(=O)Nc1cc(C(F)(F)F)ccc1N1CCOCC1 (stereo not shown) [MMV407834]
Giardia (16 uM) Mean % inhibition [1]: 33%
Crypto (10 uM) Mean % inhibition [2]: X* (Mean or standard deviation are negative but not significantly different from the control to be a growth promoter)

COC(=O)c1c(NC(=O)c2c(F)c(F)c(F)c(F)c2F)sc2c1CCCCC2 [MMV461553]
Giardia (16 uM) Mean % inhibition [1]: 33%
Crypto (10 uM) Mean % inhibition [2]: 49%

CS(=O)(=O)Cc1nc2ccccc2oc1=O [MMV553002]
Giardia (16 uM) Mean % inhibition [1]: 12%
Crypto (10 uM) Mean % inhibition [2]: 74%

c1ccc(-c2cc(N3CCCCC3)c3ccccc3n2)nc1 [MMV560185]
Giardia (16 uM) Mean % inhibition [1]: X* (Mean or standard deviation are negative but not significantly different from the control to be a growth promoter)
Crypto (10 uM) Mean % inhibition [2]: 47%

CCN(CC)S(=O)(=O)c1ccc(C(=O)Nc2cc(C)nn2-c2nc(C)c(C)c(=O)[nH]2)cc1 [MMV595321]
Giardia (16 uM) Mean % inhibition [1]: 26%
Crypto (10 uM) Mean % inhibition [2]: 92%

CCC(Sc1nc2ccccc2o1)C(=O)Nc1nnc(C)s1 (stereo not shown) [MMV611037]
Giardia (16 uM) Mean % inhibition [1]: 46%
Crypto (10 uM) Mean % inhibition [2]: X* (Mean or standard deviation are negative but not significantly different from the control to be a growth promoter)
